Results as given in ChEMBL document CHEMBL1133711 (J Med Chem, 2000).

Each compound was assayed against 5-hydroxytryptamine receptor 6 (Homo sapiens, UniProt P50406) (assay: Binding affinity for human 5-hydroxytryptamine 6 receptor expressed in HEK 293 human embryonic kidney cells, [3H]-lysergic acid diethylamide as radioligand).
Sequence of 5-hydroxytryptamine receptor 6 (P50406 whole entry): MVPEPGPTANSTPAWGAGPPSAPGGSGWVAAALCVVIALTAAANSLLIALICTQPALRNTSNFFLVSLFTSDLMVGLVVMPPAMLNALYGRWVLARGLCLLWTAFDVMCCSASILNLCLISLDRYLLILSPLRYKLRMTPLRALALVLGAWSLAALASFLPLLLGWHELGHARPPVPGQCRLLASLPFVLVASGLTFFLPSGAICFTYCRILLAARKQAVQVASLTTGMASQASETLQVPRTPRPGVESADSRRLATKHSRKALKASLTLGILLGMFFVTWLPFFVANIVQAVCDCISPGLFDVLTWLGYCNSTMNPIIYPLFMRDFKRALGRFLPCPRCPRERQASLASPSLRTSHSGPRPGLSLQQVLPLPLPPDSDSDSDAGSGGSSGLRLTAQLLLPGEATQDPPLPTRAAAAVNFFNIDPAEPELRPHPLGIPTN
Assay type: cell-based, HEK293
With `COc1ccc2c(c1)c(CCN(C)C)cn2C` the Ki was 0.51 µM.
In the case of `COc1ccc2[nH]c(C)c(CCN)c2c1`, the Ki is reported as 0.098 µM.
Compound `COc1ccc2[nH]c(C)c(CCN(C)C)c2c1` has a Ki of 0.08 µM.
`COc1ccc2[nH]c(-c3ccccc3)c(CCN(C)C)c2c1` showed a Ki of 0.054 µM.
For `CCc1[nH]c2ccc(OC)cc2c1CCN(C)C`, the Ki was 0.052 µM.
`CCCn1cc(CCN(C)C)c2cc(OC)ccc21` gave a Ki of 0.2 µM.
`COc1ccc2c(c1)c(CCN(C)C)cn2C(C)C` showed a Ki of 0.13 µM.
`Cc1[nH]c2ccc(O)cc2c1CCN` was tested, and the Ki was 0.046 µM.
Compound `CCn1cc(CCN(C)C)c2cc(OC)ccc21` has a Ki of 0.24 µM.
With `Cc1[nH]c2ccccc2c1CCN(C)C` the Ki was 0.3 µM.

These compounds were tested against T1, 5-hydroxytryptamine receptor 3A (Homo sapiens, UniProt P46098) (assay: Compound was evaluated for its binding affinity towards 5-hydroxytryptamine 3 receptor).
T1 sequence (P46098 whole entry): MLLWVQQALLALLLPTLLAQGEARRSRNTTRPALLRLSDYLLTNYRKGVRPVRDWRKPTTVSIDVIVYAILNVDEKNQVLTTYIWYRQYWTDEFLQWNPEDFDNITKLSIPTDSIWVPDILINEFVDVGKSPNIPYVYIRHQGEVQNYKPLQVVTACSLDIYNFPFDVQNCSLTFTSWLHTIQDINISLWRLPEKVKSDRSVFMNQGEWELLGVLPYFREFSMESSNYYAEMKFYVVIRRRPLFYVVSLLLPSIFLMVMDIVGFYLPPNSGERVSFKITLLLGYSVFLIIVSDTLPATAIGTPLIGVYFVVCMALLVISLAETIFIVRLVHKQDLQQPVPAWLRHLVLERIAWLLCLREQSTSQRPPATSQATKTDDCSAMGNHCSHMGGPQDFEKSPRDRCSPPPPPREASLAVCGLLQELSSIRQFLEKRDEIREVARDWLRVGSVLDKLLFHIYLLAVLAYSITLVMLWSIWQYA
For `COc1ccc2[nH]c(C)c(CCN)c2c1`, the Ki was over 10 µM.
`Cc1[nH]c2ccc(O)cc2c1CCN` gave a Ki of 1.2 µM.
